Earlier results, collected in patent publication US8003637B2, “Stabilized atypical antipsychotic formulation” (Handa Pharmaceuticals, LLC, priority 2008, dated 2011).
Where two headings read alike, the source gives them in different places.

Settings: Merck Index

amount soluble in 100 grams of water (25° C.) [grams] | volume of water in which 1 gram can dissolve (boiling water) [mL] | volume of water in which 1 gram can dissolve (cold water) [mL] | Compound
0.63 | – | – | O=C(O)/C=C/C(=O)O [fumaric acid, (E)-butenedioic acid]
– | 1 | 13 | O=C(O)CCC(=O)O [succinic acid, 1,4-butanedioic acid]
